{
  "source": "patent US9926275B2",
  "about": "(priority 2013, dated 2018)",
  "key": {"CB1 receptor [1]": {"molecular_target": "T1, CB1 receptor (Homo sapiens, UniProt P21554)", "T1 sequence (P21554 whole entry)": "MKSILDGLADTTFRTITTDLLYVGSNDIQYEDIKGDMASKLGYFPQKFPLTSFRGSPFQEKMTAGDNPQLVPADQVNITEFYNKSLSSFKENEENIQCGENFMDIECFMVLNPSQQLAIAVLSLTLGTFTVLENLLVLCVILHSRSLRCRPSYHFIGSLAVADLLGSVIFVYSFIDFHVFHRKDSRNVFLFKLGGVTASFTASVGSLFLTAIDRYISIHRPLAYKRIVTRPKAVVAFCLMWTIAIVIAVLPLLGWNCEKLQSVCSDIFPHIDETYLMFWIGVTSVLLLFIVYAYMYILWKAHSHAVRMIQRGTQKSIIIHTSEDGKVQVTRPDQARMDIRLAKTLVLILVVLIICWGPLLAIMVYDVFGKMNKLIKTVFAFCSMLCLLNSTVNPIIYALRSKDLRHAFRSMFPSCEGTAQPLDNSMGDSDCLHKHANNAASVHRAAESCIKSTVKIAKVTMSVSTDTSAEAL", "test": "DiscoveRx HitHunter cAMP XS+ assay in cAMP Hunter cell line, allosteric modulation of CP55,940 response", "type": "cell-based", "conditions": "Table 1, preincubation with compound, then CP55,940 challenge, 20 μM forskolin"}, "CB1 receptor [2]": {"molecular_target": "T1, CB1 receptor", "test": "β-arrestin recruitment in CNR1 PathHunter cell line, allosteric modulation of CP55,940 response", "type": "cell-based", "conditions": "Table 1, CP55,940 as agonist"}, "rats [3]": {"tested_on": "rats", "type": "in vivo", "experimental": "(§1) GAT358 was assessed in two different behavioral tests, the Taste Reactivity (TR) Test and the Light Dark Emergence (LDE) Test. The TR Test is used to assess the possibility of a drug inducing nausea in rats as measured by conditioned gaping to infusion of a 0.01% saccharin solution previously paired with drug administration.\nGAT358 was dissolved in a mixture of 4% DMSO, 1% Tween80, 1% Cremophor and 94% Saline (for doses of 5, 10 and 20 mg/kg) and injected at a volume of 3 ml/kg. Assessed was the vehicle (“Veh”), 10 and 20 mg/kg doses of GAT358 in the conditioned gaping model of nausea where rats are infused for 2 min with novel 0.01% saccharin followed immediately by an injection of the appropriate drug dose [Vehicle (n=6), GAT358-10 (n=8) and GAT358-20 (n=8)]. Seventy two hours following conditioning the rats were infused for 2 min with 0.01% saccharin during the drug free TR Test while their orofacial responses were videotaped for subsequent scoring. Further assessed was the Veh, 5 and 10 mg/kg of GAT358 in the LDE test [Veh (n=6), GAT358-5 (n=8) and GAT358-10 (n=8)]. Group assignment was counterbalanced based upon previous drug experience. The rats were administered the appropriate drug dose 45 min prior to being placed in the enclosed dark chamber that allowed access to an open field area where the lighting was 100 lux. The activity of the rat while in the LDE test for 5 min was tracked by Ethovision (Noldus Information Technology) and subsequently the duration of time spent in the open field and activity (distance travelled (cm)/amount of time(sec)) was analyzed.\nResults (all analyses were conducted using a one way ANOVA): […]"}, "rats [4]": {"tested_on": "rats", "test": "Light Dark Emergence (LDE) Test of anxiety", "type": "in vivo", "conditions": "5 or 10 mg/kg, p>0.05", "experimental": "as §1\nGAT358 was dissolved in a mixture of 4% DMSO, 1% Tween80, 1% Cremophor and 94% Saline (for doses of 5, 10 and 20 mg/kg) and injected at a volume of 3 ml/kg. Assessed was the vehicle (“Veh”), 10 and 20 mg/kg doses of GAT358 in the conditioned gaping model of nausea where rats are infused for 2 min with novel 0.01% saccharin followed immediately by an injection of the appropriate drug dose [Vehicle (n=6), GAT358-10 (n=8) and GAT358-20 (n=8)]. Seventy two hours following conditioning the rats were infused for 2 min with 0.01% saccharin during the drug free TR Test while their orofacial responses were videotaped for subsequent scoring. Further assessed was the Veh, 5 and 10 mg/kg of GAT358 in the LDE test [Veh (n=6), GAT358-5 (n=8) and GAT358-10 (n=8)]. […] The activity of the rat while in the LDE test for 5 min was tracked by Ethovision (Noldus Information Technology) and subsequently the duration of time spent in the open field and activity (distance travelled (cm)/amount of time(sec)) was analyzed. […]"}},
  "note": "Where two headings read alike, the source gives them in different places.",
  "data": [
    {"smiles": "O=c1c(Nc2ccc(Cl)cc2)c(Nc2cccc(-c3cccc(N4CCCC4)n3)c2)c1=O", "note": "[Compound 38, 3-((4-Chlorophenyl)amino)-4-((3-(6-(pyrrolidin-1-yl)pyridin-2-yl)phenyl)amino)cyclobut-3-ene-1,2-dione]", "values": [
      {"measurement": "cAMP % inhibition", "setting": "CB1 receptor [1]", "value": 16, "unit": "%"},
      {"measurement": "EC50", "setting": "CB1 receptor [1]; read-out: cAMP EC50", "value": "> 10000", "unit": "nM"},
      {"measurement": "β-arrestin % inhibition", "setting": "CB1 receptor [2]", "value": 107, "unit": "%"},
      {"measurement": "EC50", "setting": "CB1 receptor [2]; read-out: β-arrestin EC50", "value": 111, "unit": "nM"},
      {"measurement": "total activity of rats during the drug-free test with saccharin vs vehicle", "setting": "rats [3]; 10 mg/kg, Bonferroni p=0.006", "value": "significantly lower than the rats in the vehicle group"},
      {"measurement": "total activity of rats during the drug-free test with saccharin vs vehicle", "setting": "rats [3]; 20 mg/kg, Bonferroni p=0.012", "value": "significantly lower than the rats in the vehicle group"},
      {"measurement": "conditioned gaping responses vs vehicle", "setting": "rats [3]; 10 and 20 mg/kg, drug-free TR test 72 h after conditioning, 2 min saccharin infusion, p>0.05", "value": "did not result in the expression of conditioned gaping or total aversive responses that differed significantly from the vehicle group"},
      {"measurement": "total aversive responses (gaping, chin rubs and paw treads) vs vehicle", "setting": "rats [3]; 10 and 20 mg/kg, drug-free TR test 72 h after conditioning, p>0.05", "value": "did not result in the expression of conditioned gaping or total aversive responses that differed significantly from the vehicle group"},
      {"measurement": "conditional ingestive responding to saccharin infusion", "setting": "rats [3]; 10 and 20 mg/kg, drug-free TR test, p>0.05", "value": "did not alter conditional ingestive responding to saccharin infusion"},
      {"measurement": "time spent in the open field", "setting": "rats [4]; 45 min before 5 min LDE test", "value": "did not significantly alter the time spent in the open field"},
      {"measurement": "activity of rats during the 5 min in the LDE test", "setting": "rats [4]; 45 min before test", "value": "did not significantly alter"}
    ]}
  ]
}
